# Measurements published in PubChem BioAssay (NCI).
#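 Five compound concentrations were applied to cells in 96-well plates for 48 hours; endpoints were derived by simple linear interpolation of the resulting dose-response curve. GI50: concentration for 50% inhibition of growth. At the TGI there is no net growth.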 Where a SMILES comes first, the peptide text is derived from it.
# Experiments:
# Assay in all cases: DTP human tumour cell line panel, 48 h
# BT-549 breast = test system: BT-549 breast
# CCRF-CEM leukemia = test system: CCRF-CEM leukemia
# HCT-15 colon = test system: HCT-15 colon
# HS 578T breast = test system: HS 578T breast
# LOX IMVI melanoma = test system: LOX IMVI melanoma
# M14 melanoma = test system: M14 melanoma
# NCI-H522 lung = test system: NCI-H522 lung
# PC-3 prostate = test system: PC-3 prostate
# RXF 393 renal = test system: RXF 393 renal
# SR leukemia = test system: SR leukemia
Structure (SMILES),TGI (BT-549 breast) [µM],TGI (CCRF-CEM leukemia) [µM],TGI (HCT-15 colon) [µM],TGI (HS 578T breast) [µM],TGI (LOX IMVI melanoma) [µM],TGI (M14 melanoma) [µM],TGI (NCI-H522 lung) [µM],TGI (PC-3 prostate) [µM],TGI (RXF 393 renal) [µM],TGI (SR leukemia) [µM],GI50 (HCT-15 colon) [µM],GI50 (HS 578T breast) [µM],GI50 (LOX IMVI melanoma) [µM],GI50 (SR leukemia) [µM]
Cc1cc2c(cc1Cl)SC(c1ccccc1O)NS2(=O)=O (stereo not drawn),> 100,26.3,> 100,> 100,> 100,> 100,> 100,> 100,> 100,77.3,,,,
COC(=O)[C@]12CSC[C@H]1C[C@H](c1cccc3ccccc13)N2,> 100,> 100,> 100,,> 100,> 100,,> 100,,> 100,,,,
O=C1CC2CC(CC3(CO3)C2)C1F (stereo not drawn),,> 100,> 100,> 100,> 100,> 100,> 100,> 100,> 100,> 100,,,,
O=C(CSSCC(=O)OCCS(=O)(=O)Nc1ccc(Br)cc1)OCCS(=O)(=O)Nc1ccc(Br)cc1,,> 100,48.5,,42.3,39.1,24,,16.8,,,,,
O=c1c(-c2ccccc2)c(SCCN2CCOCC2)n(-c2ccccc2)c(=S)n1-c1ccccc1,> 100,> 100,> 100,> 100,> 100,,> 100,> 100,> 100,> 100,,,,
COc1cc(/C=C2\N=C(c3ccccc3)N(c3nc4ccc(Sc5ccccc5)cc4[nH]3)C2=O)cc(OC)c1OC,55.1,> 100,> 100,> 100,61.7,49.7,48,> 100,> 100,,,,,
Cc1cc(=O)n2c3c(c4c(cc13)c(CN(C)C)cc(=O)n4C)OC2,83.8,> 100,> 56.7,41.1,> 100,31.2,28.4,> 59.2,28.7,> 100,,,,
Cn1c2cn[nH]c(=O)c2c2ccc3ccccc3c21,> 100,> 100,> 100,53.1,53.8,> 100,59.5,> 100,62.9,> 100,,,,
COc1ccc2c(c1)CCCc1c-2nc2ccccc2c1N,31,32,26.5,45.3,20.9,21.1,28,23.4,18.7,6.32,,,,
O=C(NC(Cc1ccc(Cl)cc1)C(=O)O)c1ccc(I)cc1 (stereo not drawn),,> 100,> 100,,> 100,,> 100,,> 100,,,,,
COc1ccc(N=Nc2c(N)nn(C)c2N)cc1,,> 100,> 100,,> 100,> 100,> 100,,> 100,> 100,,,,
CCCCCCCCCCCCSC(=S)c1c(C)[nH]n(CCCCCCCCCCCC)c1=O,,> 100,> 100,,> 100,,> 100,,,> 100,,,,
O=C1CS(=O)(=O)C(c2cccc(Oc3ccccc3)c2)N1C1CC1 (stereo not drawn),> 100,> 100,> 100,> 100,> 100,> 100,> 100,66.2,55.1,> 100,,,,
CN1NC(c2ccccc2)=C(C#N)C(=O)CC1c1ccc(F)cc1 (stereo not drawn),,> 100,> 100,,> 100,,> 100,,> 100,> 100,,,,
CCC(C)C(NC(=O)C(CC(C)C)NC(=O)CNC(=O)C(NC(=O)C1CCCN1C(=O)C(CC(C)C)NC(=O)C(N)Cc1ccccc1)C(C)CC)C(=O)NC(CC(C)C)C(N)=O (stereo not drawn) (H-FLPIGLIL-NH2; configuration not given here),> 75,> 75,> 75,> 75,> 75,> 75,> 75,> 75,,> 75,,,,
Cc1ccc(C(=O)N/N=C(\N=Nc2ccccc2Cl)c2ccc(N(C)C)cc2)cc1,97.1,> 100,> 100,> 100,> 100,> 100,> 100,> 100,,68.7,,,,
CC(C)(C)c1cc(-c2nc3ccc(N4CCN(CCO)CC4)cc3[nH]2)cc(C(C)(C)C)c1O,,,3.05,4.68,3.43,,,,,> 100,1.55,1.73,1.86,2.77
CCCCCCCCCCCCCCCCCC(=O)OCC1OC(OC)C(NC(=O)N(CCCl)N=O)C(O)C1O (stereo not drawn),,,> 100,,31.8,> 100,38.3,,32.1,> 100,,,,
CCC12C=CCN3CCC4(c5cc(C(c6ccc(OC)cc6)C6Cc7ccccc7N6)c(OC)cc5N(C)C4C(O)(C(=O)OC)C1O)C32 (stereo not drawn),80.6,16.6,> 100,> 100,36,> 100,98,> 100,83.1,27,,,,
CCN(CCO)CCNc1ccc(C)c2sc3ccccc3c(=O)c12,26.7,27.6,10.8,7.49,5.18,3.23,11.4,12.7,5.64,> 22.4,,,,
Cc1ccc2c3c1[C@@H]1O[C@@H]1c1cccc(c1-3)[C@@H]1O[C@H]21,32.7,,36.7,60.2,7.38,25.1,29.6,30.7,,59.3,,,,
